In patent publication US10314806B2 (SICHUAN JIUZHANG BIOLOGICAL SCIENCE AND TECHNOLOGY CO., LTD., priority 2014, dated 2019):

How the values were obtained:
Lewis lung cancer = assay: Inhibition of mice-transplanted tumor of Lewis lung cancer C57BL/6; type: in vivo; conditions: for Inhibitory rate / Tumor weight: 12 times
Protocol: Animal C57BL/6 mice, body weight 13˜20 g, half male and half female.
Cell Lines Lewis cells were mice lung cancer cells, and grew adhering to the wall in RPMI-1640 media containing 10% calf serum, 100 U·ml^−1 penicillin, 100 μg·ml^−1 streptomycin, and were cultured in an incubator at 37° C. under 5% CO2, followed by changing the medium and subculturing every two or three days.
Viable cells were counted by trypan blue staining. Cell suspension was subcutaneously inoculated at the left forelimb armpit of mice at 0.2 ml/animal (containing about 1×10^7 cells), and after tumor grew to 1 cm×1 cm×1 cm, mice were used in experiment. Mice tumors were aseptically stripped, and washed with Hank's solution thrice, to remove blood, fat and necrotic tissues. Tumors were cut to broken pieces of 1 mm×1 mm×1 mm, and washed with Hank's solution twice, to which physiological saline was added at a ratio of (1 g:3 ml), and then ground in a glass homogenizer and filtered by 80-100 mesh sieve to make a suspension of single cell. Viable cells were counted by trypan blue staining.
On the second day after inoculation, a dosage of 0.2 ml·10 g^−1 was administrated to each group by peritoneal injection (ip) for successive 12 times, once a day. When the tumor weight in negative control group was more than 1.0 g (tumor volume being about 0.5 cm^3), the experiment was stopped, and mice were sacrificed by cervical vertebrae removal and weighed. Tumors were stripped to calculate inhibitory rate.

human brain glioma = assay: Inhibition of mice-transplanted human brain glioma; type: in vivo; conditions: for Inhibitmy rate / Tumor weight: 15 days, mice
Protocol: Human brain glioma cell lines were obtained from Key Laboratory of Transplant Engineering and Immunology, Ministry of health, West China Hospital, Sichuan University.
(1) Model establishment Mice were divided into groups, 10 mice for each group. The solution of brain glioblastoma cell lines was suitably diluted, and inoculated in cortex of left temporal lobe of mice, respectively.
Administration and intervention 24 h after inoculation, mice in each group were administrated by intraperitoneal injection. […] Each group was administrated for successive 15 days.
Determination of tumor inhibitory rate On the last day, the administration was stopped, and all mice were sacrificed and dissected. Tumor tissues were stripped and weighed. Tumor inhibitory rate %=(The mean tumor weight of control group−The mean tumor weight of drug groups)[The mean tumor weight of control group]×100%.
Statistical method The variance analysis of data was performed using the statistical program software package (SPSS13.0 for Windows), and p<0.05 was considered to be a statistically significant difference.

[1] = test system: chemical liver injury (rat alcoholic fatty liver model); assay: Protective effect on chemical liver injury (rat alcoholic fatty liver model); type: in vivo, rats; conditions: for GSH / SOD / AST / MDA / ALT: 30 days; for GSH / SOD / MDA: liver homogenate; for AST / ALT: serum
Protocol: Experimental grouping and dose design: Female SD rats were randomly divided to groups, 10 rats for each group, […], 70 mg·kg^−1, 85 mg·kg^−1, 100 mg·kg^−1, 120 mg·kg^−1, 140 mg·kg^−1, 160 mg·kg^−1, 180 mg·kg^−1, […], together with a negative control group and 50% ethanol model control group. Liver injury model was induced by ethanol (analytical pure).
Determination of ALT, AST, TG in serum of rats; Determination of SOD, MDA, reduced glutathione (GSH) in liver homogenate.
Statistics of experimental data: Statistical analysis of experimental data was performed using software package of SPSS 19.0 for windows.

[2] = compared with the negative control group, obvious in the dosage groups of 10 mg/kg-60 mg/kg
[3] = 1 mg·kg^−1 intraperitoneal injection
[4] = 5 mg·kg^−1 intraperitoneal injection
[5] = 10 mg·kg^−1 intraperitoneal injection
[6] = 30 mg·kg^−1 intraperitoneal injection
[7] = 40 mg·kg^−1 intraperitoneal injection
[8] = 50 mg·kg^−1 intraperitoneal injection
[9] = 60 mg·kg^−1 intraperitoneal injection
[10] = 70 mg·kg^−1 intraperitoneal injection
[11] = 90 mg·kg^−1 intraperitoneal injection
[12] = 100 mg·kg^−1 intraperitoneal injection

In the case of `O=C(/C=C/c1ccc(O)c(O)c1)O[C@@H]1C[C@](O)(C(=O)O)C[C@@H](O)[C@H]1O` [Chlorogenic acid of the present invention], the Inhibitory rate (Lewis lung cancer; 1 mg·kg^−1 ip once a day) is reported as 2.6%, the Tumor weight (Lewis lung cancer; 1 mg·kg^−1 ip once a day) is reported as 1.445 ± 0.772 g and the Inhibitory rate (Lewis lung cancer; 5 mg·kg^−1 ip once a day) is reported as 14.2%. For the same compound, the Tumor weight (Lewis lung cancer; 5 mg·kg^−1 ip once a day) was 1.273 ± 0.258 g, the Inhibitory rate (Lewis lung cancer; 10 mg·kg^−1 ip once a day) was 56.5% and the Tumor weight (Lewis lung cancer; 10 mg·kg^−1 ip once a day) was 0.646 ± 0.230 g. For the same compound, the Inhibitory rate (Lewis lung cancer; 20 mg·kg^−1 ip once a day) was 74.6%, the Inhibitory rate (Lewis lung cancer; 30 mg·kg^−1 ip once a day) was 78.3% and the Tumor weight (Lewis lung cancer; 30 mg·kg^−1 ip once a day) was 0.322 ± 0.111 g. It also gave an Inhibitory rate (Lewis lung cancer; 40 mg·kg^−1 ip once a day) of 76.4%, a Tumor weight (Lewis lung cancer; 40 mg·kg^−1 ip once a day) of 0.350 ± 0.078 g and an Inhibitory rate (Lewis lung cancer; 50 mg·kg^−1 ip once a day) of 65.6%. The Tumor weight (Lewis lung cancer; 50 mg·kg^−1 ip once a day) was 0.510 ± 0.241 g, the Inhibitory rate (Lewis lung cancer; 60 mg·kg^−1 ip once a day) was 59.2% and the Tumor weight (Lewis lung cancer; 60 mg·kg^−1 ip once a day) was 0.605 ± 0.363 g. It also gave an Inhibitory rate (Lewis lung cancer; 70 mg·kg^−1 ip once a day) of 32.3%, a Tumor weight (Lewis lung cancer; 70 mg·kg^−1 ip once a day) of 1.005 ± 0.657 g and an Inhibitory rate (Lewis lung cancer; 80 mg·kg^−1 ip once a day) of 24.8%. For the same compound, the Inhibitory rate (Lewis lung cancer; 90 mg·kg^−1 ip once a day) was 17.6%, the Tumor weight (Lewis lung cancer; 90 mg·kg^−1 ip once a day) was 1.223 ± 0.314 g and the Inhibitory rate (Lewis lung cancer; 100 mg·kg^−1 ip once a day) was 11.3%. For the same compound, the Tumor weight (Lewis lung cancer; 100 mg·kg^−1 ip once a day) was 1.316 ± 0.352 g, the “inhibitory action on mice-transplanted tumor of Lewis lung cancer C57BL/6” value (Lewis lung cancer; [2]) was “obviously inhibitory action” and the Inhibitmy rate (human brain glioma; [3]) was 13.30%. For the same compound, the Tumor weight (human brain glioma; [3]) was 1.258 ± 0.254 g, the Inhibitmy rate (human brain glioma; [4]) was 16.06% and the Tumor weight (human brain glioma; [4]) was 1.218 ± 0.187 g. It also gave an Inhibitmy rate (human brain glioma; [5]) of 52.45%, a Tumor weight (human brain glioma; [5]) of 0.690 ± 0.128 g and an Inhibitmy rate (human brain glioma; 20 mg·kg^−1 intraperitoneal injection) of 70.71%. For the same compound, the Inhibitmy rate (human brain glioma; [6]) was 68.57%, the Tumor weight (human brain glioma; [6]) was 0.456 ± 0.128 g and the Inhibitmy rate (human brain glioma; [7]) was 62.03%. For the same compound, the Tumor weight (human brain glioma; [7]) was 0.551 ± 0.087 g, the Inhibitmy rate (human brain glioma; [8]) was 56.65% and the Tumor weight (human brain glioma; [8]) was 0.629 ± 0.068 g. The Inhibitmy rate (human brain glioma; [9]) was 51.69%, the Tumor weight (human brain glioma; [9]) was 0.701 ± 0.256 g and the Inhibitmy rate (human brain glioma; [10]) was 31.22%. The Tumor weight (human brain glioma; [10]) was 0.998 ± 0.212 g, the Inhibitmy rate (human brain glioma; 80 mg·kg^−1 intraperitoneal injection) was 18.06% and the Inhibitmy rate (human brain glioma; [11]) was 13.23%. The Tumor weight (human brain glioma; [11]) was 1.259 ± 0.124 g, the Inhibitmy rate (human brain glioma; [12]) was 8.27% and the Tumor weight (human brain glioma; [12]) was 1.331 ± 0.156 g. For the same compound, the “inhibitory action on mice-transplanted tumor of human brain glioma” value (human brain glioma; [2]) was “obviously inhibitory action”, the GSH ([1]; 10 mg·kg^−1 intragastric) was 13.02 ± 1.23 mg/g and the SOD ([1]; 10 mg·kg^−1 intragastric) was 28.12 ± 3.25 nmol/mg. For the same compound, the AST ([1]; 10 mg·kg^−1 intragastric) was 189.54 ± 4.87 U/L, the GSH ([1]; 20 mg·kg^−1 intragastric) was 18.98 ± 2.14 mg/g and the MDA ([1]; 20 mg·kg^−1 intragastric) was 5.15 ± 0.21 U/mg. The SOD ([1]; 20 mg·kg^−1 intragastric) was 36.45 ± 2.47 nmol/mg, the AST ([1]; 20 mg·kg^−1 intragastric) was 178.54 ± 6.15 U/L and the GSH ([1]; 35 mg·kg^−1 intragastric) was 19.21 ± 1.45 mg/g. It also gave an MDA ([1]; 35 mg·kg^−1 intragastric) of 5.14 ± 0.47 U/mg, an SOD ([1]; 35 mg·kg^−1 intragastric) of 37.27 ± 3.25 nmol/mg and an AST ([1]; 35 mg·kg^−1 intragastric) of 168.54 ± 4.31 U/L. The GSH ([1]; 50 mg·kg^−1 intragastric) was 22.14 ± 2.41 mg/g, the MDA ([1]; 50 mg·kg^−1 intragastric) was 4.12 ± 0.65 U/mg and the SOD ([1]; 50 mg·kg^−1 intragastric) was 38.24 ± 2.75 nmol/mg. The ALT ([1]; 50 mg·kg^−1 intragastric) was 40.12 ± 3.15 U/L, the AST ([1]; 50 mg·kg^−1 intragastric) was 139.21 ± 5.14 U/L and the GSH ([1]; 70 mg·kg^−1 intragastric) was 22.87 ± 2.47 mg/g. For the same compound, the MDA ([1]; 70 mg·kg^−1 intragastric) was 4.56 ± 0.78 U/mg, the SOD ([1]; 70 mg·kg^−1 intragastric) was 38.75 ± 3.21 nmol/mg and the ALT ([1]; 70 mg·kg^−1 intragastric) was 38.48 ± 2.47 U/L. The AST ([1]; 70 mg·kg^−1 intragastric) was 127.54 ± 6.54 U/L, the GSH ([1]; 85 mg·kg^−1 intragastric) was 23.01 ± 1.58 mg/g and the MDA ([1]; 85 mg·kg^−1 intragastric) was 4.32 ± 0.46 U/mg. The SOD ([1]; 85 mg·kg^−1 intragastric) was 40.14 ± 6.12 nmol/mg, the ALT ([1]; 85 mg·kg^−1 intragastric) was 35.47 ± 2.46 U/L and the AST ([1]; 85 mg·kg^−1 intragastric) was 119.25 ± 6.89 U/L. It also gave a GSH ([1]; 100 mg·kg^−1 intragastric) of 23.48 ± 1.78 mg/g, an MDA ([1]; 100 mg·kg^−1 intragastric) of 4.08 ± 0.85 U/mg and an SOD ([1]; 100 mg·kg^−1 intragastric) of 41.56 ± 4.32 nmol/mg. It also gave an ALT ([1]; 100 mg·kg^−1 intragastric) of 33.14 ± 1.89 U/L, an AST ([1]; 100 mg·kg^−1 intragastric) of 126.89 ± 4.21 U/L and a GSH ([1]; 120 mg·kg^−1 intragastric) of 23.98 ± 2.14 mg/g. It also gave an MDA ([1]; 120 mg·kg^−1 intragastric) of 3.89 ± 0.42 U/mg, an SOD ([1]; 120 mg·kg^−1 intragastric) of 42.87 ± 3.15 nmol/mg and an ALT ([1]; 120 mg·kg^−1 intragastric) of 39.85 ± 2.41 U/L. For the same compound, the AST ([1]; 120 mg·kg^−1 intragastric) was 138.84 ± 5.15 U/L, the GSH ([1]; 140 mg·kg^−1 intragastric) was 24.35 ± 1.58 mg/g and the MDA ([1]; 140 mg·kg^−1 intragastric) was 3.57 ± 0.64 U/mg. It also gave an SOD ([1]; 140 mg·kg^−1 intragastric) of 44.78 ± 2.31 nmol/mg, an ALT ([1]; 140 mg·kg^−1 intragastric) of 40.08 ± 2.78 U/L and an AST ([1]; 140 mg·kg^−1 intragastric) of 140.54 ± 6.12 U/L. The GSH ([1]; 160 mg·kg^−1 intragastric) was 20.01 ± 1.47 mg/g, the MDA ([1]; 160 mg·kg^−1 intragastric) was 4.05 ± 0.25 U/mg and the SOD ([1]; 160 mg·kg^−1 intragastric) was 38.56 ± 2.45 nmol/mg. The AST ([1]; 160 mg·kg^−1 intragastric) was 157.98 ± 5.27 U/L, the GSH ([1]; 180 mg·kg^−1 intragastric) was 19.87 ± 2.84 mg/g and the MDA ([1]; 180 mg·kg^−1 intragastric) was 4.98 ± 0.87 U/mg. The SOD ([1]; 180 mg·kg^−1 intragastric) was 37.25 ± 4.27 nmol/mg, the AST ([1]; 180 mg·kg^−1 intragastric) was 168.12 ± 4.89 U/L and the GSH ([1]; 200 mg·kg^−1 intragastric) was 19.01 ± 1.58 mg/g. For the same compound, the MDA ([1]; 200 mg·kg^−1 intragastric) was 5.45 ± 0.24 U/mg, the SOD ([1]; 200 mg·kg^−1 intragastric) was 36.25 ± 2.87 nmol/mg and the AST ([1]; 200 mg·kg^−1 intragastric) was 177.56 ± 4.25 U/L. It also gave a GSH ([1]; 220 mg·kg^−1 intragastric) of 17.24 ± 1.89 mg/g, an SOD ([1]; 220 mg·kg^−1 intragastric) of 30.12 ± 2.14 nmol/mg and an AST ([1]; 220 mg·kg^−1 intragastric) of 189.98 ± 5.67 U/L. The “inhibitory action on chemical liver injury” value ([1]; dosage of 50 mg/kg-140 mg/kg had the most obvious effect) was “obviously inhibitory action”.
